What all share (assay): cells
Holding throughout (parameters): species or system JFCR39 human cancer cell lines; JFCR39 panel growth inhibition, sulforhodamine B total protein after 48 h

One assay concerns BSY-1. The following applies: for GI50: BSY-1, 48 h; for Log GI50: 48 h, inhibitor, Log GI50, 48 h. The method, boiled down:
(§1)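 Human cancer lines from the JFCR39 panel were cultured in RPMI-1640 with 5% FBS and 1 µg mL-1 kanamycin at 37°C, 5% CO2. Cells were exposed to compound for 48 hours, and growth was measured as total cellular protein by sulforhodamine B staining; GI50 from duplicate assays.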

The test system of another assay is DMS114. The settings on record: for GI50: Homo sapiens, DMS-114, 48 h; for Log GI50: 48 h, inhibitor, Log GI50, 48 h. The method, boiled down: as §1
Another assay deals with MCF-7. The following applies: Homo sapiens, MCF7, 48 h. The method, boiled down:
as §1

The next assay has as its system OVCAR-3. The settings on record: for GI50: Homo sapiens, OVCAR-3, 48 h. The method, boiled down:
as §1

The subject of another assay is OVCAR-4. The settings on record: for GI50: Homo sapiens, OVCAR-4, 48 h. The method, boiled down:
as §1

Another assay has as its system SF-268. The following applies: for GI50: Homo sapiens, SF-268, 48 h. The method, boiled down: as §1
For another assay, the system named is SF-295. The settings on record: Homo sapiens, SF-295, 48 h. The method, boiled down: as §1
Another assay has as its system SNB-75. The following applies: for GI50: Homo sapiens, SNB-75, 48 h. The method, boiled down: as §1
The subject of another assay is St-4. The following applies: for GI50: Homo sapiens, St-4, 48 h. The method, boiled down: as §1
In the next assay the test system is U251. The settings on record: for GI50: Homo sapiens, U-251, 48 h. The method, boiled down:
as §1

For another assay, the system named is HBC-4. The settings on record: for GI50: HBC4, 48 h. The method, boiled down:
as §1

A further assay has as its system MDA-MB-231. The settings on record: for GI50: Homo sapiens, MDA-MB-231, 48 h. The method, boiled down: as §1
Another assay has as its system RXF-631L. The settings on record: 48 h; for GI50: RXF-631L. The method, boiled down:
as §1

The mark [1] stands for this setting: 48 h, inhibitor, Log GI50, 48 h.

What is called GI50 is the concentration at which growth is held to half of that of the control. A higher GI50 goes with less potent growth inhibition. On to `C=C1CCC2C(C)(CC(=O)C=C(C)C)C(O)CCC2(C)C1Cc1c(OC)oc(CO)c(C)c1=O` (stereo not shown) [Compound 19], for which the concentration for 50% growth inhibition (GI50) in the assay with BSY-1 is 33.3 µM; in the assay with DMS114, 6.52 µM; in the assay with MCF-7, 25.4 µM; with OVCAR-3, 18.4 µM; in the assay on OVCAR-4, 52.6 µM; in the assay with SF-268, 69.5 µM. In addition, the GI50 in the assay on SF-295 is 17.2 µM; with SNB-75, 53.8 µM; with St-4 it was 75.3 µM; with U251, 69.7 µM.

Consider `C=C1CC[C@H]2[C@]3(C)C[C@@H](C=C(C)C)O[C@H]3CC[C@]2(C)[C@@H]1Cc1c(OC)oc(CO)c(C)c1=O` [Compound 17], for which the GI50 is 12.8 µM in the assay on BSY-1; 0.0701 µM in the assay on DMS114; 16.6 µM in the assay with HBC-4; 13.9 µM with MDA-MB-231; 10.5 µM with OVCAR-3; 12.2 µM in the assay with OVCAR-4. Also, the 50% growth inhibitory concentration (GI50) with RXF-631L was 14.4 µM; in the assay with SF-268, 13.2 µM; in the assay with SF-295, 10.7 µM; in the assay on SNB-75 it was 16.9 µM; with St-4, 15.2 µM; in the assay on U251, 14.3 µM.

`C=C1CC[C@@H]2[C@](C)(CC[C@H]3O[C@H](C=C(C)C)C[C@@]23C)[C@@H]1Cc1c(OC)oc(CO)c(C)c1=O` [Compound 20]: the GI50 in the assay on BSY-1 was 12.2 µM; with DMS114 it was 0.0476 µM; with HBC-4, 15.6 µM; in the assay on MDA-MB-231, 13.1 µM; in the assay on OVCAR-3, 3.81 µM; with OVCAR-4, 11.9 µM. Besides, the GI50 is 17 µM in the assay with RXF-631L; 12.7 µM in the assay with SF-268; 11.2 µM in the assay on SF-295; 16.4 µM with SNB-75; 14.3 µM with St-4; 13.8 µM with U251.

Regarding `C=C1CCC2C(C)(CCC=C(C)C)C(O)CCC2(C)C1Cc1c(OC)oc(C)c(C(=O)OC)c1=O` (stereo not shown) [Compound 14], the GI50 in the assay on BSY-1 was 10.2 µM; with DMS114, 0.0942 µM; in the assay on HBC-4, 16.1 µM; in the assay with MCF-7, 2.4 µM; in the assay with MDA-MB-231 it was 13.2 µM; in the assay on OVCAR-3, 10.3 µM. Besides, the GI50 in the assay with OVCAR-4 was 11.9 µM; in the assay on RXF-631L it was 14.5 µM; with SF-268, 12.8 µM; in the assay on SF-295, 11.5 µM; in the assay on SNB-75, 20.1 µM; in the assay with St-4, 14.6 µM. In addition, in the assay with U251, halving of growth (GI50) required 15 µM.

As for `C=C1CCC2C(C)(CCC=C(C)C)C(O)CCC2(C)C1Cc1c(OC)oc(C)c(C)c1=O` (stereo not shown) [Compound 11], the 50% growth inhibitory concentration (GI50) with BSY-1 is 11.5 µM; with DMS114, 0.0565 µM; in the assay with HBC-4 it was 35.8 µM; with MCF-7, 1.88 µM; in the assay on MDA-MB-231 it was 22.6 µM; with OVCAR-3, 3.61 µM. Also, the GI50 is 9.06 µM in the assay with OVCAR-4; 19.3 µM in the assay on RXF-631L; 14 µM in the assay with SF-268; 27.8 µM in the assay with SNB-75; 24.9 µM in the assay with St-4; 22.8 µM with U251.

Take `C=C1CC[C@@H]2[C@](C)(CC[C@H]3O[C@H](C=C(C)C)C[C@@]23C)[C@@H]1Cc1c(OC)oc(CO)c(C(=O)OC)c1=O` [Compound 21]: the GI50 is 14.9 µM with BSY-1; 4.93 µM in the assay on DMS114; 16.8 µM in the assay on HBC-4; 14.2 µM with MCF-7; 17.8 µM in the assay on MDA-MB-231; 12 µM in the assay with OVCAR-3. In addition, the 50% growth inhibitory concentration (GI50) in the assay with OVCAR-4 was 15.1 µM; with RXF-631L, 17.3 µM; in the assay with SF-268, 19.5 µM; with SF-295, 12.1 µM; with SNB-75, 17.8 µM; in the assay with St-4, 20 µM. In the assay with U251, this molecule showed a 50% growth inhibitory concentration (GI50) of 17.5 µM.

Turning to `C=C1CCC2C(C)(CCC=C(C)C)C(O)CCC2(C)C1Cc1c(OC)oc(CO)c(C)c1=O` (stereo not shown) [Compound 12], the “Log GI50” value is recorded as -5.304 M in the assay with BSY-1 and -7.363 M in the assay on DMS114. Besides, the GI50 in the assay on HBC-4 is 13.8 µM; with MDA-MB-231 it was 13.5 µM; in the assay with OVCAR-3, 4.69 µM; in the assay on OVCAR-4 it was 9.93 µM; with RXF-631L, 16.1 µM; in the assay on SF-268, 12.3 µM. Moreover, the 50% growth inhibitory concentration (GI50) is 18.4 µM in the assay with SNB-75, 14.1 µM with St-4 and 15 µM with U251.

For the molecule `C=C1CCC2C(C)(CCC=C(C)C)C(O)CCC2(C)C1Cc1c(OC)oc(CO)c(C(=O)OC)c1=O` (stereo not shown) [Compound 13], the 50% growth inhibitory concentration (GI50) is 13.9 µM in the assay on BSY-1; 5.89 µM in the assay on DMS114; 21.8 µM in the assay on HBC-4; 13.8 µM with MCF-7; 19.6 µM in the assay on MDA-MB-231; 10.8 µM in the assay on OVCAR-3. For the same molecule, the GI50 in the assay on OVCAR-4 was 15.5 µM; in the assay with RXF-631L, 16.8 µM; in the assay on SF-268, 20.2 µM; in the assay with SF-295, 11.9 µM; with SNB-75, 18.8 µM; in the assay on St-4, 21.9 µM. The same molecule showed a concentration for 50% growth inhibition (GI50) in the assay with U251 of 19.9 µM.

Consider `C=C1CCC2C(C)(CCC=C(C)C)C(O)CCC2(C)C1Cc1c(OC)oc(CO)c(C)c1=O` (stereo not shown) [Compound 16], for which the “Log GI50” value in the assay on BSY-1 was -4.961 M; in the assay on DMS114 it was -6.139 M; with HBC-4 (setting [1]) it was -4.804 M; with MDA-MB-231 (setting [1]) it was -4.882 M; with OVCAR-3 (setting [1]) it was -5.447 M; with OVCAR-4 (setting [1]), -4.966 M. Besides, the “Log GI50” value in the assay on RXF-631L (inhibitor, Log GI50, 48 h) is reported as -4.839 M; in the assay on SF-268 (setting [1]) it was -4.944 M; with SNB-75 (setting [1]), -4.827 M; with St-4 (setting [1]), -4.853 M; in the assay on U251 (setting [1]) it was -4.880 M. Moreover, the concentration for 50% growth inhibition (GI50) in the assay with MCF-7 is 4.46 µM; in the assay with SF-295, 2.8 µM.

For the molecule `C=C1CC[C@@H]2[C@](C)(CC[C@H]3O[C@H](C=C(C)C)C[C@@]23C)[C@@H]1Cc1c(OC)oc(C)c(C)c1=O` [Compound 22, O-methylated higginsianin A], the GI50 with DMS114 is 0.0601 µM; with HBC-4, 11.9 µM; in the assay on MCF-7, 1.5 µM; in the assay with OVCAR-3 it was 2.34 µM; in the assay with OVCAR-4, 2.77 µM; in the assay with RXF-631L, 8.05 µM. For the same molecule, the concentration for 50% growth inhibition (GI50) in the assay with SF-268 is 8.18 µM; in the assay on SF-295, 2.45 µM; with SNB-75 it was 10 µM; with St-4, 11 µM; in the assay with U251 it was 11.6 µM.

Take `C=C1CCC2C(C)(CC(=O)C=C(C)C)C(O)CCC2(C)C1Cc1c(O)c(C)c(C)oc1=O` (stereo not shown) [Compound 7]: the concentration for 50% growth inhibition (GI50) was 37 µM in the assay on BSY-1; 22.6 µM with MCF-7; 58.3 µM with MDA-MB-231; 20.6 µM with OVCAR-3; 35.8 µM in the assay with OVCAR-4; 65.9 µM in the assay on RXF-631L. For the same molecule, the GI50 with SF-268 was 77.8 µM; with SF-295, 25.4 µM; with St-4, 69.2 µM; in the assay on U251 it was 95.5 µM.

The record behind these values is paper PMC7156458, “Synthetic biology based construction of biological activity-related library of fungal decalin-containing diterpenoid pyrones” (Nature Communications, 2020).
